Data on nine compounds can be found in publication PMC11249977, “Investigating Penetration and Antimicrobial Activity of Vector-Bicycle Conjugates” (ACS Infectious Diseases, 2024).

In this assay the test system is E. coli (ATCC25922). It is filed as cell-based, Escherichia coli. The settings on record: for MIC (μg/ml), repeat 1 / MIC (μg/ml), repeat 2 / MIC (μg/ml), repeat 3: ATCC25922. An excerpt: To determine how the cell killing ability of the vector-Bicycle variants changed when compared to the original vector, their antimicrobial activity was examined against a clinical strain of E. coli (ATCC25922) in cation-adjusted Mueller Hinton broth (CaMHB). The minimum inhibitory concentration (MIC) is defined as the lowest concentration of compound that completely prevents bacterial growth (Table 2). The unconjugated Bicycle molecule (AB1) and the original unconjugated vector (AV1) were used to make the MAP-Bicycle conjugate A1. All MAP-Bicycle conjugates contain the AB1 Bicycle molecule, linked to a variant of the original MAP (e.g., C2, S2, H6). The unconjugated MAP variants are labeled with the equivalent letter and number but with a “V” included in the name (e.g., CV2, SV2, HV6, see Table 1 for all vector variants).
Bacterial stock was streaked onto LB agar plates and incubated at 37 °C for 16–18 h. Using a sterile swab, single colonies were picked and resuspended in 2 mL of 0.9% saline solution, visually matching the turbidity of a 0.5 McFarland standard and having an OD600 nm of 0.18–0.25 (which corresponds to […]). The suspension was diluted 200-fold in cation-adjusted Mueller–-Hinton Broth (Ca-MHB), and 100 μL of the diluted culture was pipetted in wells of a 96-well plate containing 100 μL of a 2-factor dilution series of a compound per row of wells. The plate was incubated at 37 °C for 19 h. Afterward, the OD600 nm of each well was read using a Pherastar FSX plate reader. MIC values were determined, with the MIC being the lowest concentration of the compound at which growth was absent (i.e., OD600 nm was equivalent to no growth, as observed in carbenicillin control wells). This was also verified visually. […]

The mark [1] stands for this setting: E. coli ATCC25922, CaMHB, 37 °C, 19 h, OD600 nm read, range of at least 3 biological repeats.

Values after ≈ are worked out from the molar mass of the structure shown. Like-named read-outs stand apart in the source and are kept apart here. Non-standard residues stand in square brackets, D forms with d. Residues, ends and D or L forms follow the SMILES beside them. Dap(N3) = [N-]=[N+]=NC[C@H](N)C(=O)O

What is called MIC is the lowest concentration found to suppress growth. Read a high MIC as a need for much substance. In the case of `CC(C)C[C@@H](NC(=O)[C@@H](CCCNC(=N)N)NC(=O)[C@@H](CCCNC(=N)N)NC(=O)[C@H](NC(=O)[C@@H](Cc1c[nH]c2ccccc12)NC(=O)[C@@H](CCCNC(=N)N)NC(=O)[C@@H](CO)NC(=O)[C@@H](Cc1c[nH]c2ccccc12)NC(=O)[C@@H](CCCNC(=N)N)NC(=O)[C@@H](N)CN=[N+]=[N-])C(C)C)C(=O)N[C@H](CO)C(=O)N[C@H](CCCCN)C(N)=O` [AV1] (H-[Dap(N3)][dR][dW][dS][dR][dW][dV][dR][dR][dL][dS][dK]-NH2; N-terminus and C-terminus assumed), the “MIC” value (ATCC25922, 19 h) was found to be 19.5 µM and the “MIC” value under setting [1] turned out to be 32 µg/mL.
Turning to `CC(C)C[C@@H](NC(=O)[C@@H](CCCNC(=N)N)NC(=O)[C@@H](CCCNC(=N)N)NC(=O)[C@H](NC(=O)[C@@H](Cc1c[nH]c2ccccc12)NC(=O)[C@@H](CCCNC(=N)N)NC(=O)[C@@H](CO)NC(=O)[C@@H](CCCNC(=N)N)NC(=O)[C@@H](CCCNC(=N)N)NC(=O)[C@@H](N)CN=[N+]=[N-])C(C)C)C(=O)N[C@H](CO)C(=O)N[C@H](CCCCN)C(N)=O` [CV1] (H-[Dap(N3)][dR][dR][dS][dR][dW][dV][dR][dR][dL][dS][dK]-NH2; N-terminus and C-terminus assumed), the “MIC (μg/ml), repeat 1” value was over 64 µg/mL; the “MIC (μg/ml), repeat 2” value was over 64 µg/mL; the “MIC (μg/ml), repeat 3” value was over 64 µg/mL. For the setting “ATCC25922, 19 h”, the “MIC” value is over 39.7 µM.
Regarding `CC(C)C[C@@H](NC(=O)[C@@H](CCCNC(=N)N)NC(=O)[C@@H](CCCNC(=N)N)NC(=O)[C@H](NC(=O)[C@@H](Cc1c[nH]c2ccccc12)NC(=O)[C@@H](CCCNC(=N)N)NC(=O)[C@@H](CCCNC(=N)N)NC(=O)[C@@H](Cc1c[nH]c2ccccc12)NC(=O)[C@@H](CCCNC(=N)N)NC(=O)[C@@H](N)CN=[N+]=[N-])C(C)C)C(=O)N[C@H](CO)C(=O)N[C@H](CCCCN)C(N)=O` [CV2] (H-[Dap(N3)][dR][dW][dR][dR][dW][dV][dR][dR][dL][dS][dK]-NH2; N-terminus and C-terminus assumed), the “MIC” value by setting is: (ATCC25922, 19 h) 9.4 µM; under setting [1], 16 µg/mL.
As for `CC(C)C[C@@H](NC(=O)[C@@H](CCCNC(=N)N)NC(=O)[C@@H](CCCNC(=N)N)NC(=O)[C@H](NC(=O)[C@@H](CCCNC(=N)N)NC(=O)[C@@H](CCCNC(=N)N)NC(=O)[C@@H](CO)NC(=O)[C@@H](Cc1c[nH]c2ccccc12)NC(=O)[C@@H](CCCNC(=N)N)NC(=O)[C@@H](N)CN=[N+]=[N-])C(C)C)C(=O)N[C@H](CO)C(=O)N[C@H](CCCCN)C(N)=O` [CV3] (H-[Dap(N3)][dR][dW][dS][dR][dR][dV][dR][dR][dL][dS][dK]-NH2; N-terminus and C-terminus assumed), the “MIC (μg/ml), repeat 1” value is over 64 µg/mL; the “MIC (μg/ml), repeat 2” value is over 64 µg/mL; the “MIC (μg/ml), repeat 3” value was over 64 µg/mL. Moreover, the “MIC” value (ATCC25922, 19 h) was over 39.7 µM.
For `CC(C)C[C@@H](NC(=O)[C@@H](CCCNC(=N)N)NC(=O)[C@@H](CCCNC(=N)N)NC(=O)[C@@H](CCCNC(=N)N)NC(=O)[C@@H](Cc1c[nH]c2ccccc12)NC(=O)[C@@H](CCCNC(=N)N)NC(=O)[C@@H](CO)NC(=O)[C@@H](Cc1c[nH]c2ccccc12)NC(=O)[C@@H](CCCNC(=N)N)NC(=O)[C@@H](N)CN=[N+]=[N-])C(=O)N[C@H](CO)C(=O)N[C@H](CCCCN)C(N)=O` [CV4] (H-[Dap(N3)][dR][dW][dS][dR][dW][dR][dR][dR][dL][dS][dK]-NH2; N-terminus and C-terminus assumed), the “MIC” value is, setting by setting: (ATCC25922, 19 h) 18.8 µM; under setting [1], 32 µg/mL.
The like results for `CC(C)[C@@H](NC(=O)[C@@H](Cc1c[nH]c2ccccc12)NC(=O)[C@@H](CCCNC(=N)N)NC(=O)[C@@H](CO)NC(=O)[C@@H](Cc1c[nH]c2ccccc12)NC(=O)[C@@H](CCCNC(=N)N)NC(=O)[C@@H](N)CN=[N+]=[N-])C(=O)N[C@H](CCCNC(=N)N)C(=O)N[C@H](CCCNC(=N)N)C(=O)N[C@H](CCCNC(=N)N)C(=O)N[C@H](CO)C(=O)N[C@H](CCCCN)C(N)=O` [CV5] (H-[Dap(N3)][dR][dW][dS][dR][dW][dV][dR][dR][dR][dS][dK]-NH2; N-terminus and C-terminus assumed) were, in that order, 19 µM and 32 µg/mL.
As to `CC(C)C[C@@H](NC(=O)[C@@H](CCCNC(=N)N)NC(=O)[C@@H](CCCNC(=N)N)NC(=O)[C@H](NC(=O)[C@@H](Cc1c[nH]c2ccccc12)NC(=O)[C@@H](CCCNC(=N)N)NC(=O)[C@@H](CCCNC(=N)N)NC(=O)[C@@H](CCCNC(=N)N)NC(=O)[C@@H](CCCNC(=N)N)NC(=O)[C@@H](N)CN=[N+]=[N-])C(C)C)C(=O)N[C@H](CO)C(=O)N[C@H](CCCCN)C(N)=O` [CV8] (H-[Dap(N3)][dR][dR][dR][dR][dW][dV][dR][dR][dL][dS][dK]-NH2; N-terminus and C-terminus assumed), the “MIC (μg/ml), repeat 1” value was found to be 64 µg/mL (≈ 38.1 µM); the “MIC (μg/ml), repeat 2” value worked out at 64 µg/mL (≈ 38.1 µM); the “MIC (μg/ml), repeat 3” value is over 64 µg/mL.
Take “CAzal - dR dW dS dR dW dV dR dR dL dR dK – CONH2 [CV6, standalone MAP vector variant of AV1, single arginine substitution]”: the “MIC” value under setting [1] is 16 µg/mL.
Turning to “CAzal - dR dW dS dR dW dV dR dR dR dR dK – CONH2 [CV12, standalone MAP vector variant of AV1, double arginine substitution]”, the “MIC” value under setting [1] turned out to be 16 µg/mL.
